ChEMBL document CHEMBL1201862, “PubChem BioAssay data set” (2004)
Activity calls are given as the source filed them. For most assays here, no stated cut-off is given here; in the data, actives have a measured EC50 and inactives only a lower limit.

What was measured:
[1] = target: T1, RNA-binding protein pos-1 (Caenorhabditis elegans, UniProt G5EF15); assay: inhibitors of POS-1/mex-3 RNA binding, dose response, biochemical, fluorescence polarization (AID 1964);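 further: purified POS-1 fused to maltose binding protein made in E. coli; potency of compounds blocking POS-1 binding to fluorescent RNA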
T1 sequence (G5EF15 whole entry): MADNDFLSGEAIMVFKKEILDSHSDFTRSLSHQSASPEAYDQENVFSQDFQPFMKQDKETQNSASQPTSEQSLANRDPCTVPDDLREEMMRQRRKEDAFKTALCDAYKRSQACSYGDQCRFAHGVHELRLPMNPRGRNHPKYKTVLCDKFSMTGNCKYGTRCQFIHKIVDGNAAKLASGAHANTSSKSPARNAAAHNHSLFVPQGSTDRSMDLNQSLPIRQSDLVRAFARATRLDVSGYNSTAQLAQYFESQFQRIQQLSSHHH

[2] = target: T2, Zinc finger protein mex-5 (Caenorhabditis elegans, UniProt Q9XUB2); assay: MEX-5/TCR-2 RNA interaction inhibitors, dose response, biochemical, C. elegans, fluorescence polarization (AID 1960)
T2 sequence (Q9XUB2 whole entry): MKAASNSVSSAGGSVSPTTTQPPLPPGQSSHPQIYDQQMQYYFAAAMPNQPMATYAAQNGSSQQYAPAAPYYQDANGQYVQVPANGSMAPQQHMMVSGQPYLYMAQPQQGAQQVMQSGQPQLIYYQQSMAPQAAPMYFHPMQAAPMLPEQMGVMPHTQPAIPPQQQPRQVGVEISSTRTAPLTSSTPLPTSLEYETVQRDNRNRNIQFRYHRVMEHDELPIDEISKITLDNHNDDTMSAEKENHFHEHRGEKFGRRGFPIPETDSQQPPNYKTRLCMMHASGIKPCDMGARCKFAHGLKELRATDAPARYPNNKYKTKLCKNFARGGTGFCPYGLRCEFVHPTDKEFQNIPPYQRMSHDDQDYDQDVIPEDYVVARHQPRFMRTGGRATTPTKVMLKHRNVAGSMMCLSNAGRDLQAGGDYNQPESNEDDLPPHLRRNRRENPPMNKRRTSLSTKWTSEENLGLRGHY

[3] = cytotoxicity toward DRD oncogenic fibroblasts, dose response, cell-based, non-viral oncogenic, luminescence (AID 1934); type: functional; details: Homo sapiens
[4] = tested on: BJ; assay: cytotoxicity toward BJ-TERT-LT-ST fibroblasts, dose response, cell-based, RAS-independent, luminescence (AID 1935); type: functional; details: Homo sapiens;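 further: BJ fibroblasts immortalized with TERT plus LT and ST oncogenes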
[5] = tested on: BJ; assay: cytotoxicity toward BJ-TERT fibroblasts, dose response, cell-based, RAS-independent, luminescence (AID 1933); type: functional; details: Homo sapiens
[6] = tested on: BJ; assay: cells; type: functional, cell-based; details: Homo sapiens
[7] = target: T3, Carboxy-terminal domain RNA polymerase II polypeptide A small phosphatase 1 (Homo sapiens, UniProt Q9GZU7); assay: inhibitors of CTDSP1, concentration-response testing, biochemical assay, absorbance-based, actives from ultra-high-throughput screening (AID 540297); type: functional
T3 sequence (Q9GZU7 whole entry): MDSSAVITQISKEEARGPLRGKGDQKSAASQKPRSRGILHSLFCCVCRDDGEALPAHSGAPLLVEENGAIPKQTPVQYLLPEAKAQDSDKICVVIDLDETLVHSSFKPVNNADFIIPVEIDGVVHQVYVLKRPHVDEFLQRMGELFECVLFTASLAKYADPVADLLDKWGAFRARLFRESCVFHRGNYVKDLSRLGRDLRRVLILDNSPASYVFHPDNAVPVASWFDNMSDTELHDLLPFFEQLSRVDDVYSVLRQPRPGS

[8] = target: T4, Protein skinhead-1 (Caenorhabditis elegans, UniProt P34707); type: functional
T4 sequence (P34707 whole entry): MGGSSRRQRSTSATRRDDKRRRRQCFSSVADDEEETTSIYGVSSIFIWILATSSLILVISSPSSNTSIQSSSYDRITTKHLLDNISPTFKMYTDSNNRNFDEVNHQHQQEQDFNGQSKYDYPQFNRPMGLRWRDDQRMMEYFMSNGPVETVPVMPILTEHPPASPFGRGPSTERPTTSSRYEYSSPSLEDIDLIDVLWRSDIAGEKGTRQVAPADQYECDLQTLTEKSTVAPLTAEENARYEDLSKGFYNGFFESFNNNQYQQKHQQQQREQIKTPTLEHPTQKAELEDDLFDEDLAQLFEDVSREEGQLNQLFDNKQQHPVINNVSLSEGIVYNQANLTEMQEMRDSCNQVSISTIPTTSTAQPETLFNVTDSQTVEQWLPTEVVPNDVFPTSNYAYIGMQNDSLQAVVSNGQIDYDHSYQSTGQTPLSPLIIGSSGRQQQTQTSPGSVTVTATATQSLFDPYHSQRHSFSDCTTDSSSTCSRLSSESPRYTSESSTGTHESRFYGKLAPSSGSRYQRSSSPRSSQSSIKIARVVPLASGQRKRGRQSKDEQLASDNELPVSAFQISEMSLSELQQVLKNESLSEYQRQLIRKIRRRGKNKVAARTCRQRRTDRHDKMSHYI

[9] = target: Paired box protein Pax-8 (Homo sapiens, UniProt Q06710); assay: inhibitors of PAX8-driven TPO luciferase reporter, dose response, RMG-I cells, cherry-pick (AID 687027); type: functional, cell-based;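 further: luciferase reporter driven by Pax8 target thyroperoxidase promoter measured by SteadyGlo luminescence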
Chain of Paired box protein Pax-8 (Q06710 whole entry): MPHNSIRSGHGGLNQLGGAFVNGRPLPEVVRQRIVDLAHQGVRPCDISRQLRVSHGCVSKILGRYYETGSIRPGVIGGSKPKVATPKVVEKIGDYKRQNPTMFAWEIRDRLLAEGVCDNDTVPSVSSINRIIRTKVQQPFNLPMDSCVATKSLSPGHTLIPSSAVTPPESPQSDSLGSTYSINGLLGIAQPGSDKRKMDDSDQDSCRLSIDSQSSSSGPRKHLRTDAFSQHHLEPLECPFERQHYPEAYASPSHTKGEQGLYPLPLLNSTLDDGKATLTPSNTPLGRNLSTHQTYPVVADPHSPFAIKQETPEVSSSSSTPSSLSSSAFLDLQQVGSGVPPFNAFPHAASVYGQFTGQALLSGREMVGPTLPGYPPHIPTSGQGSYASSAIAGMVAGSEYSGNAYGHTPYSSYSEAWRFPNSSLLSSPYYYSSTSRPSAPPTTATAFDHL

[10] = target: T5, Streptokinase A (Streptococcus pyogenes serotype M1, UniProt P10520); assay: S. pyogenes streptokinase expression inhibitors, potency, dose response, plasminogen activation absorbance, OD405 (AID 1914); type: functional, Streptococcus pyogenes M1 GAS;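 further: secreted streptokinase activity via plasminogen activation per viability signal from cell pellet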
T5 sequence (P10520 whole entry): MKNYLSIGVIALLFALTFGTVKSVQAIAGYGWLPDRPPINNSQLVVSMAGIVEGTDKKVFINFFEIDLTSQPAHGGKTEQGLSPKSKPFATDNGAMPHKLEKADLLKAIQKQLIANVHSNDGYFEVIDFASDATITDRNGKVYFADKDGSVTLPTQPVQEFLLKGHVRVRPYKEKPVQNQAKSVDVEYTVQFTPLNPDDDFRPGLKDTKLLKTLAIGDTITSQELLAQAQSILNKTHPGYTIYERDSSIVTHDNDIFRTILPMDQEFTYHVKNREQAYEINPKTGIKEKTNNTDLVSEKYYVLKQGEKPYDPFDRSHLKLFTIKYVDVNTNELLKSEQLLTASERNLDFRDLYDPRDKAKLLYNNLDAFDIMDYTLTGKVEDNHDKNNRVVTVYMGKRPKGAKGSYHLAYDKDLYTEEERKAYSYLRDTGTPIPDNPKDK

[11] = tested on: Streptococcus; assay: Group A Streptococcus viability loss, dose response, counter-screen for streptokinase expression inhibitor project, luminescence, BacTiterGlo (AID 1915); type: functional, organism-based;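 further: potency for reduction of bacterial viability or growth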
[12] = tested on: Streptococcus sp. 'group A'; assay: growth inhibition of control SK(-) GAS strain, dose response, counter-screen for streptokinase expression inhibitor project, luminescence, kanamycin, BacTiterGlo, confirmation (AID 1900); type: functional, organism-based

## O=C(NCCF)C1Nc2ccc(OC(F)(F)F)cc2C2C=CCC12 (stereo not drawn)
[1]
  EC50: > 300 µM (not active)
[2]
  EC50: > 300 µM (not active)

## Cc1nc([N+](=O)[O-])c(Br)n1CC(=O)c1cccc([N+](=O)[O-])c1
[3]
  EC50: > 150 µM (not active)
[4]
  EC50: > 150 µM (inconclusive)
[5]
  EC50: > 150 µM (not active)
[6]
  EC50: > 150 µM (not active)

## Cc1ccc2[nH]c(/C(C#N)=C/c3ccc(-c4cccc([N+](=O)[O-])c4)o3)nc2c1
[7]
  IC50: 6.06 µM (active)

## O=C(O)c1ccc(Nc2ccc([N+](=O)[O-])c3nonc23)cc1
[8]
  IC50: 48.5 µM (active)

## c1ccc(-c2ccc(-c3ccncn3)cc2)cc1
[8]
  IC50: 15.2 µM (active)

## Cc1ccc(NC(=O)CSCC(=O)Nc2ccccc2C(=O)N2CCCCC2)cc1
[8]
  IC50: > 100 µM (inactive)

## CCOC(=O)N1CCN(C(=O)Nc2ccc(Cl)cc2)CC1
[8]
  IC50: > 100 µM (inactive)

## COc1cc2nc(C3CCC3)nc(N3CCN(c4ccccc4OC)CC3)c2cc1OC
[9]
  AC50: 18.9 µM (active)

## C=C1[C@@H](C)C2[C@H](Cc3ccccc3)NC(=O)[C@]23OC(=O)CC[C@H](O)CCC[C@H](C)C/C=C/[C@H]3[C@@H]1O (stereo partly drawn)
[3]
  EC50: 12.2 µM (inconclusive)
[4]
  EC50: 17.2 µM (active)
[5]
  EC50: 8.36 µM (inconclusive)
[6]
  EC50: > 150 µM (not active)

## Cn1ncc2c(NCCc3ccccc3)nc(Cl)nc21
[8]
  IC50: > 100 µM (inactive)

## CCOc1ccc2nc(NC(=O)CN3CCC(n4nnc5cc(C(F)(F)F)ccc54)CC3)sc2c1
[10]
  EC50: > 150 µM (not active)
[11]
  EC50: > 150 µM (not active)
[8]
  IC50: > 100 µM (inactive)
[12]
  EC50: 68.6 µM (active)

## COc1ccc(C2C(C#N)=C(N)OC3=C2C(=O)CCC3)c(OC)c1OC (stereo not drawn)
[1]
  EC50: > 300 µM (not active)
[2]
  EC50: > 300 µM (not active)
